Assays:
Assay type in all cases: in vivo
Kochia (Kochia scoparia) [1] = test: Test A preemergence; conditions: Bassia scoparia, pre-emergence, 240 h
Method in brief: (§1)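 Compounds were formulated in a non-phytotoxic solvent mixture with surfactant and applied as a preemergence directed soil spray after seeding, or sprayed postemergence over plants 2 to 10 cm tall at the one- to two-leaf stage. Evaluation after about 10 d compared treated with untreated controls, using a scale from 0 (no effect) to 100 (complete control).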

[2] = tested on: barnyardgrass (Echinochloa crus-galli); test: Test A preemergence; conditions: Echinochloa crus-galli, pre-emergence, 240 h
Method in brief: as §1

[3] = tested on: giant foxtail (Setaria faberii); test: Test A preemergence; conditions: Setaria faberi, pre-emergence, 240 h
Method in brief: as §1

[4] = tested on: pigweed (Amaranthus retroflexus); test: Test A preemergence; conditions: Amaranthus retroflexus, pre-emergence, 240 h
[5] = tested on: ragweed (common ragweed, Ambrosia elatior); test: Test A preemergence; conditions: Ambrosia artemisiifolia, pre-emergence, 240 h
Method in brief: as §1

[6] = tested on: ryegrass, Italian (Italian ryegrass, Lolium multiflorum); test: Test A preemergence; conditions: Lolium multiflorum, pre-emergence, 240 h
Method in brief: as §1

[7] = tested on: Galium (catchweed bedstraw, Galium aparine); test: Test A postemergence; conditions: Galium, post-emergence, 240 h, postemergence, approx. 10 d
Method in brief: as §1

Kochia (Kochia scoparia) [8] = test: Test A postemergence; conditions: Bassia scoparia, post-emergence, 240 h, postemergence, approx. 10 d
Method in brief: as §1

[9] = tested on: barnyardgrass (Echinochloa crus-galli); test: Test A postemergence; conditions: Echinochloa crus-galli, post-emergence, 240 h, postemergence, approx. 10 d
Method in brief: as §1

[10] = tested on: blackgrass (Alopecurus myosuroides); test: Test A postemergence; conditions: Alopecurus myosuroides, post-emergence, 240 h, postemergence, approx. 10 d
Method in brief: as §1

corn (Zea mays) = test: Test A postemergence; conditions: Zea mays, post-emergence, 240 h, postemergence, approx. 10 d
Method in brief: as §1

[11] = tested on: giant foxtail (Setaria faberii); test: Test A postemergence; conditions: Setaria faberi, post-emergence, 240 h, postemergence, approx. 10 d
Method in brief: as §1

[12] = tested on: ragweed (common ragweed, Ambrosia elatior); test: Test A postemergence; conditions: Ambrosia artemisiifolia, post-emergence, 240 h, 125 g ai/ha, postemergence; visual injury on 0 to 100 scale (0 no effect, 100 complete control), approx. 10 d; read-out: Ragweed plant response rating
Method in brief: as §1

[13] = tested on: ryegrass, Italian (Italian ryegrass, Lolium multiflorum); test: Test A postemergence; conditions: Lolium multiflorum, post-emergence, 240 h, 125 g ai/ha, postemergence; visual injury on 0 to 100 scale (0 no effect, 100 complete control), approx. 10 d; read-out: Ryegrass, Italian plant response rating
Method in brief: as §1

[14] = tested on: wheat (Triticum aestivum); test: Test A postemergence; conditions: Triticum aestivum, post-emergence, 240 h, 125 g ai/ha, postemergence; visual injury on 0 to 100 scale (0 no effect, 100 complete control), approx. 10 d; read-out: Wheat plant response rating
Method in brief: as §1

For `O=C1NC[C@H](c2ccc3c(c2)CCC3)[C@H]1C(=O)Nc1cccc(F)c1F` [Compound 1046], the pest or weed control at 125 g/ha (Kochia (Kochia scoparia) [1]; 125 g ai/ha, Preemergence, visual injury rating after approximately 10 d, read-out: Kochia plant response rating (0 to 100 scale, 0 is no effect, 100 is complete control)) was 60%, the pest or weed control at 500 g/ha (Kochia (Kochia scoparia) [1]; 500 g ai/ha, preemergence, visual injury rating about 10 d after treatment, 0 to 100 scale (0 no effect, 100 complete control), read-out: Kochia plant response rating) was 70% and the pest or weed control at 125 g/ha ([2]; 125 g ai/ha, Preemergence, visual injury rating after approximately 10 d, read-out: Barnyardgrass plant response rating (0 to 100 scale, 0 is no effect, 100 is complete control)) was 90%. It also gave a pest or weed control at 500 g/ha ([2]; 500 g ai/ha, preemergence, visual injury rating about 10 d after treatment, 0 to 100 scale (0 no effect, 100 complete control), read-out: Barnyardgrass plant response rating) of 90%, a pest or weed control at 125 g/ha ([3]; 125 g ai/ha, Preemergence, visual injury rating after approximately 10 d, read-out: Foxtail, Giant plant response rating (0 to 100 scale, 0 is no effect, 100 is complete control)) of 80% and a pest or weed control at 500 g/ha ([3]; 500 g ai/ha, preemergence, visual injury rating about 10 d after treatment, 0 to 100 scale (0 no effect, 100 complete control), read-out: Foxtail, Giant plant response rating) of 90%. The pest or weed control at 125 g/ha ([4]; 125 g ai/ha, Preemergence, visual injury rating after approximately 10 d, read-out: Pigweed plant response rating (0 to 100 scale, 0 is no effect, 100 is complete control)) was 0%, the pest or weed control at 500 g/ha ([4]; 500 g ai/ha, preemergence, visual injury rating about 10 d after treatment, 0 to 100 scale (0 no effect, 100 complete control), read-out: Pigweed plant response rating) was 0% and the pest or weed control at 125 g/ha ([5]; 125 g ai/ha, Preemergence, visual injury rating after approximately 10 d, read-out: Ragweed plant response rating (0 to 100 scale, 0 is no effect, 100 is complete control)) was 40%. It also gave a pest or weed control at 500 g/ha ([5]; 500 g ai/ha, preemergence, visual injury rating about 10 d after treatment, 0 to 100 scale (0 no effect, 100 complete control), read-out: Ragweed plant response rating) of 70%, a pest or weed control at 125 g/ha ([6]; 125 g ai/ha, Preemergence, visual injury rating after approximately 10 d, read-out: Ryegrass, Italian plant response rating (0 to 100 scale, 0 is no effect, 100 is complete control)) of 60% and a pest or weed control at 500 g/ha ([6]; 500 g ai/ha, preemergence, visual injury rating about 10 d after treatment, 0 to 100 scale (0 no effect, 100 complete control), read-out: Ryegrass, Italian plant response rating) of 60%. The pest or weed control at 125 g/ha ([7]; 125 g ai/ha, visual injury on 0 to 100 scale (0 no effect, 100 complete control), read-out: Galium plant response rating) was 50%, the pest or weed control at 500 g/ha ([7]; 500 g ai/ha, visual injury, 0 to 100 scale (0 no effect, 100 complete control), read-out: Plant response rating, Galium) was 50% and the pest or weed control at 125 g/ha (Kochia (Kochia scoparia) [8]; 125 g ai/ha, visual injury on 0 to 100 scale (0 no effect, 100 complete control), read-out: Kochia plant response rating) was 0%. It also gave a pest or weed control at 500 g/ha (Kochia (Kochia scoparia) [8]; 500 g ai/ha, visual injury, 0 to 100 scale (0 no effect, 100 complete control), read-out: Plant response rating, Kochia) of 0%, a pest or weed control at 125 g/ha ([9]; 125 g ai/ha, visual injury on 0 to 100 scale (0 no effect, 100 complete control), read-out: Barnyardgrass plant response rating) of 90% and a pest or weed control at 500 g/ha ([9]; 500 g ai/ha, visual injury, 0 to 100 scale (0 no effect, 100 complete control), read-out: Plant response rating, Barnyardgrass) of 90%. The pest or weed control at 125 g/ha ([10]; 125 g ai/ha, visual injury on 0 to 100 scale (0 no effect, 100 complete control), read-out: Blackgrass plant response rating) was 30%, the pest or weed control at 500 g/ha ([10]; 500 g ai/ha, visual injury, 0 to 100 scale (0 no effect, 100 complete control), read-out: Plant response rating, Blackgrass) was 50% and the plant injury at 125 g/ha (corn (Zea mays); 125 g ai/ha, visual injury on 0 to 100 scale (0 no effect, 100 complete control), read-out: Corn plant response rating) was 20%. It also gave a Corn plant response rating (crop injury, 0 = no effect, 100 = complete kill) at 500 g/ha (corn (Zea mays); 500 g ai/ha, visual injury, 0 to 100 scale (0 no effect, 100 complete control)) of 60%, a pest or weed control at 125 g/ha ([11]; 125 g ai/ha, visual injury on 0 to 100 scale (0 no effect, 100 complete control), read-out: Foxtail, Giant plant response rating) of 60% and a pest or weed control at 500 g/ha ([11]; 500 g ai/ha, visual injury, 0 to 100 scale (0 no effect, 100 complete control), read-out: Plant response rating, Foxtail, Giant) of 90%. The pest or weed control at 125 g/ha [12] was 0%, the pest or weed control at 125 g/ha [13] was 40% and the plant injury at 125 g/ha [14] was 20%.

Reference: patent US12077503B2, “Substituted cyclic amides and their use as herbicides” (FMC CORPORATION, priority 2015, dated 2024)
